Experimental data as given in patent US5100647A, “Method and formulations for the therapy of cystic fibrosis, Bartter's syndrome and secretory diarrheas, and for diuretic treatment” (The Trustees of the University of Pennsylvania, priority 1990, dated 1992).
Counter-ions that a name gives are not always drawn. Like-named read-outs stand apart in the source and are kept apart here.

What was measured:
[1] = cited from earlier work
[2] = tested on: potassium conductance of pancreatic beta cells; conditions: cited from earlier work
[3] = cited from earlier work; remark: listed apart in the source
chloride channel = experiment: whole-cell patch clamp of chloride channel current in isolated cells from a cultured kidney cell line
Text: Using isolated cells from a cultured kidney cell line, we tested the effects of various doses of Sparteine applied to the interior and exterior of the cell on current through the chloride channel as measured with standard patch clamp electrophysiologic techniques.

[4] = tested on: chloride conductance of CF/T43 cells; experiment: whole-cell chloride current in CF/T43 cystic fibrosis airway epithelial cells; type: cell-based, human
Protocol: An aliquot of cells from a cell line, CF/T43, derived from airway epithelia from a patient with cystic fibrosis were used.
Data were obtained using internal and external solutions as described by McCann, Li and Welsh in studies of whole cell ICI in normal human airway epithelial cells so as to be able to compare our data with theirs. The internal solutions are cesium-based providing a minimal internal calcium concentration (nominally 0-10 nM, with EGTA) and the external solution is sodium-based with symmetrical CI concentrations of 140 mM. No cyclic nucleotides are included in the solutions and amiloride is added to block the sodium conductance.

potassium channel = conditions: requires millimolar concentrations; cited from earlier work
sodium channels = sodium channels (Cavia porcellus, UniProt A0A286Y3I8); conditions: requires millimolar concentrations; cited from earlier work

Molecule: C1CCN2C[C@@H]3C[C@@H](CN4CCCC[C@@H]34)[C@H]2C1 [Sparteine sulfate]
- insulin secretion ([1]; healthy human beings): enhance insulin secretion
- glucagon secretion ([1]; insulin-dependent diabetics): increase glucagon secretion
- insulin secretion ([1]; non-diabetic obese individuals, intravenous administration): significant increase in insulin secretion
- potassium conductance of pancreatic beta cells [2]: decreases the potassium conductance
- water solubility and stability [3]: water soluble and stable

Molecule: C1CCN2CC3CC(CN4CCCCC34)C2C1 (stereo not drawn) [Sparteine, dodecahydro-7,14-methano-2H,6H-di-pyrido[1,2-a:1',2'-e][1,5]diazocine]
- chloride current relative to the control value (chloride channel; Sparteine 0.1, 50 and 500 μM): 10-20 X
- peak current through the chloride channel (chloride channel; Sparteine 0.1, 50 and 500 μM, cells dialyzed with ATP, no cAMP, 10 nM calcium, depolarized to +70 mV from holding potential -45 mV): 80-200 μA/cm^2
- time course of the activated current with increasing dose (chloride channel; above 0.1 μM): increasingly rapid decline in the activated current
- effect of externally applied compound on chloride current (chloride channel; external, 0.1 to 10 nM): marked augmentation of the chloride current
- effect on the chloride channel at higher concentrations (chloride channel; higher (micromolar-millimolar) concentrations): potent inhibitor
- effect on the chloride channel at low concentrations (chloride channel; low (pico-nanomolar) concentrations): very potent activator
- current amplitude ([4]; external 0.1 nM, no cyclic nucleotides, minimal internal calcium, amiloride present): marked increase in current amplitude
- reversal potential of the induced current ([4]; external 0.1 nM, symmetrical Cl 140 mM): 0 mV
- induction of chloride current in cystic fibrosis cells ([4]; pM, absence of cytosolic Ca^2+ and cyclic nucleotides): induces a chloride current
- reversibility of the activated current ([4]; washout): reversible
- action on olfactory tract axons (potassium channel): potassium channel blocker
- antiarrhythmic classification due to effects on sodium channels (sodium channels): Class 1 cardiac antiarrhythmic

Molecule: calcium
- maximum chloride current with known activator added to the internal solution (chloride channel; depolarized to +70 mV from -45 mV): 40-50
